This passage reports solubility results from PMC4413193, “3-[4-(1H-Indol-3-yl)-1,3-thiazol-2-yl]-1H-pyrrolo[2,3-b]pyridines, Nortopsentin Analogues with Antiproliferative Activity” (Marine Drugs, 2015).

This data set is described as follows: Solubility noted during NMR characterisation. In kind it is physicochemical. The conditions noted are these: NMR solvents (DMSO-d6 or CDCl3). The method, then:
All melting points were taken on a Büchi-Tottoly capillary apparatus. IR spectra were determined in bromoform with a Shimadzu FT/IR 8400S spectrophotometer. ^1H and ^13C NMR spectra were measured at 200 and 50.0 MHz, respectively, in dimethylsulfoxide (DMSO)-d6 or CDCl3 solution, using a Bruker Avance II series 200 MHz spectrometer. […] Column chromatography was performed with Merk silica gel 230–400 mesh ASTM or with Büchi Sepacor chromatography module (prepacked cartridge system). Elemental analyses (C, H, N) were within ±0.4% of theoretical values and were performed with a VARIO EL III elemental analyzer. Purity of all the tested compounds was greater than 98%, determined by HPLC as described below.

Consider `Cn1cc(-c2csc(-c3cn(C)c4ncccc34)n2)c2cc(F)ccc21` [Compound 3b, 3-[4-(5-Fluoro-1-methyl-1H-indol-3-yl)-1,3-thiazol-2-yl]-1-methyl-1H-pyrrolo[2,3-b]pyridine], for which the solubility result is “poor solubility”.

Regarding `Cn1cc(-c2csc(-c3c[nH]c4ncccc34)n2)c2cc(F)ccc21` [Compound 3a, 3-[4-(5-Fluoro-1-methyl-1H-indol-3-yl)-1,3-thiazol-2-yl]-1H-pyrrolo[2,3-b]pyridine], the solubility entry is on record as “poor solubility”.
